# How the values were obtained:
# stationary S. aureus = conditions: high concentrations (24 μg/ml); sterilization not reported; cited from earlier work
# [1] = system: stationary state S. aureus SA113; test: Antibiotic action against stationary state S. aureus SA113 (MSSA), cfu counts; format: cell-based; conditions: for effect on stationary population of S. aureus cells: antibiotic alone, 5-day incubation, FIG. 1
# Description: FIG. 1 is a graph showing antibiotic action against stationary state S. aureus. SA113.
# (§1) Referring to FIG. 1, antibiotic action against stationary state S. aureus. SA113, an MSSA commonly used as a S. aureus model strain, was evaluated. S. aureus SA113 was grown in Mueller-Hinton broth for 24 hours. Antibiotics were added at day 0. Time-points were taken every 24 hours. 100 μl of culture was removed, centrifuged for one minute, and the cells were resuspended in PBS. Serial dilutions from neat to 10^−6 were spotted on MHA plates and incubated overnight at 37° C. The results shown in FIG. 1 are the averages of three independent experiments.
# [2] = from literature, healthy volunteers; cited from earlier work
# [3] = system: stationary MRSA 37 culture; format: cell-based, S. aureus
# Description: Black line represents the limit of detection
# The ability of ADEP 10c to kill an S. aureus MRSA strain was also evaluated.
# (§2) Resistance to methicillin and oxacillin is the hallmark of MRSA.
# MRSA strain = test: Oxacillin MIC of MRSA strain; format: cell-based, S. aureus; conditions: Staphylococcus aureus
# Excerpt: as §2
# S. aureus = test: MIC against S. aureus; format: cell-based
# Description: as §1
compound,measurement,setting,value
CCCCCCCCCC(=O)N[C@@H](Cc1c[nH]c2ccccc12)C(=O)N[C@H](CC(N)=O)C(=O)N[C@@H](CC(=O)O)C(=O)N[C@@H]1C(=O)NCC(=O)N[C@@H](CCCN)C(=O)N[C@@H](CC(=O)O)C(=O)N[C@H](C)C(=O)N[C@@H](CC(=O)O)C(=O)NCC(=O)N[C@H](CO)C(=O)N[C@@H]([C@H](C)CC(=O)O)C(=O)N[C@@H](CC(=O)c2ccccc2N)C(=O)O[C@@H]1C [Daptomycin],activity against stationary S. aureus,stationary S. aureus,some activity
O=C(O)c1cn(C2CC2)c2cc(N3CCNCC3)c(F)cc2c1=O [ciprofloxacin],effect on stationary population of S. aureus cells,[1],little effect
CC(=O)NC[C@H]1CN(c2ccc(N3CCOCC3)c(F)c2)C(=O)O1 [linezolid],effect on stationary population of S. aureus cells,[1],little effect
same,clinically achievable concentrations,[2],14.5 µg/mL
Cc1onc(-c2ccccc2)c1C(=O)N[C@@H]1C(=O)N2[C@@H]1SC(C)(C)[C@@H]2C(=O)O [oxacillin],effect on stationary population of S. aureus cells,[1],little effect
same,killing of clpP mutants of MRSA,[3],killed clpP mutants of MRSA
same,killing of stationary MRSA cells,[3]; oxacillin alone,no effect
same,MIC,MRSA strain,> 75 µg/mL
same,clinically achievable concentrations,[2],16 µg/mL
CO[C@H]1/C=C/O[C@@]2(C)Oc3c(C)c(O)c4c(O)c(c(/C=N/N5CCN(C)CC5)c(O)c4c3C2=O)NC(=O)/C(C)=C\C=C\[C@H](C)[C@H](O)[C@@H](C)[C@@H](O)[C@@H](C)[C@H](OC(C)=O)[C@@H]1C [rifampicin],clinically achievable concentrations,[2],7.2 µg/mL
"L-proline, 3-fluoro-N-[(2E)-1-oxo-2-hepten-1-yl]-L-phenylalanyl-L-seryl-L-prolyl-(2S)-4-methyl-2-piperidinecarbonyl-L-alanyl-, (6→2)-lactone [ADEP 10c]",MIC,S. aureus; S. aureus,5 µg/mL
same,MIC,S. aureus; tested with a variety of MSSA and MRSA isolates,5 µg/mL
same,cell numbers of the stationary population,[1],about 10^4 per ml
same,"killing of stationary cells, ADEP 10c compared with ADEP 4",[1],more efficacious at killing stationary cells
